Consider twelve compounds from patent publication US7880007B2, “Bicyclic substituted phenyl piperidine modulators of muscarinic receptors” (Vertex Pharmaceuticals Incorporated, priority 2004, dated 2011).

Common to all, as to assay type: cell-based
The target of experiment [1] is T1, M1 muscarinic receptor (Homo sapiens, UniProt P11229).
T1 construct: expressed in transfected cells; host or cells: CHO (M1-CHO)
T1 sequence (P11229 1-460): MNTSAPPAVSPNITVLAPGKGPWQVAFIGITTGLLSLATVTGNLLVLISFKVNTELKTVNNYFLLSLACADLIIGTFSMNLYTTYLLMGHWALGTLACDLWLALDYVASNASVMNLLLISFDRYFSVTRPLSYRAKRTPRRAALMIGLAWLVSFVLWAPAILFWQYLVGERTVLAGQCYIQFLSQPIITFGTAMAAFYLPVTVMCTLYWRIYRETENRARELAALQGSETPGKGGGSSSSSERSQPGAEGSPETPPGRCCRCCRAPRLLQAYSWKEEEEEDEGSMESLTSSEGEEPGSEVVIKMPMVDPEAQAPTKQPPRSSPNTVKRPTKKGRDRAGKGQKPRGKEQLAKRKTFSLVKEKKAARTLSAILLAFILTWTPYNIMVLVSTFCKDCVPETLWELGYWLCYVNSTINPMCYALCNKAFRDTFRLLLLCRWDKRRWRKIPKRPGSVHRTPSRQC
The experiment is described as follows: Functional mobilization of intracellular calcium (FLIPR), M1-CHO cells. Conditions: for Emax: 100% efficacy = maximum response obtained with the Carbachol control; for M1 Activity: M1-CHO cells, calcium mobilization (FLIPR). The method, boiled down:
(§1)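 FLIPR fluorescence (ex 488, em 540 nm) recorded 60 sec after compound addition to dye-loaded CHO cells. Agonist mode: compound alone. Antagonist mode: 15 min compound pre-incubation, then carbachol at EC80, or co-application. Efficacy expressed as % of maximal carbachol response.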

Experiment [2] deals with T2, M2 muscarinic receptor (Homo sapiens, UniProt P08172).
T2 construct: expressed in transfected cells; host or cells: CHO (M2-CHO)
T2 sequence (P08172 1-466): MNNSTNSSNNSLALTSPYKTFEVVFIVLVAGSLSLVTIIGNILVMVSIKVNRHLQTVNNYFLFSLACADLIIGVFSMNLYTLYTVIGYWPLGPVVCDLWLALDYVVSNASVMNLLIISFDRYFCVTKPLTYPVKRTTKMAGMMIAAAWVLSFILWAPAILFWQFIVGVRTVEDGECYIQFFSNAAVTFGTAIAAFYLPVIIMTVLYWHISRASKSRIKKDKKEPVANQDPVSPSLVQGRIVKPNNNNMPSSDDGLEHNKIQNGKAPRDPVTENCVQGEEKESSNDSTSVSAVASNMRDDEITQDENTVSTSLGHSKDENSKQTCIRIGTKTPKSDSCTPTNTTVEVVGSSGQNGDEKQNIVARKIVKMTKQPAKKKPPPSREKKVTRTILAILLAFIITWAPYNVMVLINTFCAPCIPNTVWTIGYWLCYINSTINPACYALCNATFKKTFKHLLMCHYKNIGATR
In words: Functional mobilization of intracellular calcium (FLIPR), M2-CHO cells. Conditions: for Emax: 100% efficacy = maximum response obtained with the Carbachol control; for M2 Activity: M2-CHO cells, calcium mobilization (FLIPR). The method, boiled down: as §1
For orientation: Calcium flux is commonly read through the fluorescence of an indicator in the cells.

Experiment [3] has as its target T3, M3 muscarinic receptor (Homo sapiens, UniProt P20309).
T3 construct: expressed in transfected cells; host or cells: CHO (M3-CHO)
In words: Functional mobilization of intracellular calcium (FLIPR), M3-CHO cells. Conditions: for Emax: 100% efficacy = maximum response obtained with the Carbachol control; for M3 Activity: M3-CHO cells, calcium mobilization (FLIPR). The method, boiled down: as §1

Experiment [4] has as its target T4, M4 muscarinic receptor (Homo sapiens, UniProt P08173).
T4 construct: expressed in transfected cells; host or cells: CHO (M4-CHO)
T4 sequence (P08173 1-479): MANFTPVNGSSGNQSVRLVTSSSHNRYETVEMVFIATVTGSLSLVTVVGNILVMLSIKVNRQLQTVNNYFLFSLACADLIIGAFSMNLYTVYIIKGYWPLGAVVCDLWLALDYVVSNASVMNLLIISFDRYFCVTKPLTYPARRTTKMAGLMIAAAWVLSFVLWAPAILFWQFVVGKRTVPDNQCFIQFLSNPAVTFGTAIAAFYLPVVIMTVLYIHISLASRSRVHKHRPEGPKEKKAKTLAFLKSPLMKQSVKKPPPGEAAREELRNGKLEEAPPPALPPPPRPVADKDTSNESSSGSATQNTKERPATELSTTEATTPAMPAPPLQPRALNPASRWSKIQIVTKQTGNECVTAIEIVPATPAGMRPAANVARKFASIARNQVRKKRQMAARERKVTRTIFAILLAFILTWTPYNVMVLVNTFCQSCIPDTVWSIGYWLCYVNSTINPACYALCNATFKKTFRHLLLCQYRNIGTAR
In words: Functional mobilization of intracellular calcium (FLIPR), M4-CHO cells. Conditions: for Emax: 100% efficacy = maximum response obtained with the Carbachol control; for M4 Activity: M4-CHO cells, calcium mobilization (FLIPR). The method, boiled down:
as §1

T3 sequence (P20309 whole entry): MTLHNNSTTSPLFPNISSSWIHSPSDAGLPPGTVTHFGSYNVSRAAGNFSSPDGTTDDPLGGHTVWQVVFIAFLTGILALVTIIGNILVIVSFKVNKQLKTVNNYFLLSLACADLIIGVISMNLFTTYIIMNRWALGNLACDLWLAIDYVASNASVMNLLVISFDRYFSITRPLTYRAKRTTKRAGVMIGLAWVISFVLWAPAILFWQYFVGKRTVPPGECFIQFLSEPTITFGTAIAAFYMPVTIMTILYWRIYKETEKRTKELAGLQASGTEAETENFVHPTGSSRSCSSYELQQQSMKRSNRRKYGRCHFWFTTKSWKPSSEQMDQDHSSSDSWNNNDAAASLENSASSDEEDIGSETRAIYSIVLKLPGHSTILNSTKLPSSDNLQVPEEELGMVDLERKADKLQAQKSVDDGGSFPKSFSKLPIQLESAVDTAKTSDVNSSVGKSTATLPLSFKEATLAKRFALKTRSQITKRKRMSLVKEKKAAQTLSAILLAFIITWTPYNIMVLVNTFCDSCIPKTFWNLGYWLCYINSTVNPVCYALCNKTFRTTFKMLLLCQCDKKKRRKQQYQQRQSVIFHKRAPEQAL

One may read the Emax as the size of the effect at its maximum, as opposed to the concentration needed. With `COc1ccc(Cl)cc1C1(F)CCN(C2C3CCCC2CCC3)CC1` (stereo not drawn) [Compound 74], in experiment [1], the maximal effect (Emax) was under 25% and the “M1 Activity” value is reported as “+ (activity was measured to be greater than 5.0 μM)”. In experiment [2], the Emax is under 25% and the “M2 Activity” value is reported as “+ (activity was measured to be greater than 5.0 μM)”. In addition, in experiment [3], the Emax was under 25% and the “M3 Activity” value is “+ (activity was measured to be greater than 5.0 μM)”. For the same compound, in experiment [4], the Emax is under 25% and the “M4 Activity” value is listed as “+ (activity was measured to be greater than 5.0 μM)”.
In the case of `COc1cc(F)c(F)cc1C1CCN([C@@H]2C[C@H]3CC[C@H]2C3)CC1` [Compound 76], in experiment [1], the maximal effect (Emax) is under 25% and the “M1 Activity” value is “+ (activity was measured to be greater than 5.0 μM)”. For the same compound, in experiment [2], the Emax is under 25% and the “M2 Activity” value is on record as “+ (activity was measured to be greater than 5.0 μM)”. For the same compound, in experiment [3], the maximal response (Emax) is under 25% and the “M3 Activity” value is given as “+ (activity was measured to be greater than 5.0 μM)”. In addition, in experiment [4], the Emax lay within 25 to 100% and the “M4 Activity” value is given as “++ (activity was measured to be from 1.0 μM to 5.0 μM)”.
Take `COc1ccc(-c2ccc3c(c2)OCO3)cc1C1CCN(C2CC3CCC(C3)C2)CC1` (stereo not drawn) [Compound 77]: in experiment [1], the maximal response (Emax) was under 25% and the “M1 Activity” value was “+ (activity was measured to be greater than 5.0 μM)”. In addition, in experiment [2], the Emax is under 25% and the “M2 Activity” value is on record as “+ (activity was measured to be greater than 5.0 μM)”. In addition, in experiment [3], the maximal effect (Emax) is under 25% and the “M3 Activity” value is given as “+ (activity was measured to be greater than 5.0 μM)”. Moreover, in experiment [4], the maximal response (Emax) fell in the range of 25 to 100% and the “M4 Activity” value is “+ (activity was measured to be greater than 5.0 μM)”.
In the case of `COc1ccc(F)cc1C1CCN([C@H]2C[C@H]3CC[C@H]2C3)CC1` [Compound 78], in experiment [1], the Emax fell in the range of 25 to 100% and the “M1 Activity” value was “++ (activity was measured to be from 1.0 μM to 5.0 μM)”. Further, in experiment [2], the Emax is under 25% and the “M2 Activity” value is listed as “+ (activity was measured to be greater than 5.0 μM)”. For the same compound, in experiment [3], the Emax is under 25% and the “M3 Activity” value was “+ (activity was measured to be greater than 5.0 μM)”. In addition, in experiment [4], the Emax was in the range of 25 to 100% and the “M4 Activity” value was “+++ (activity was measured to be less than 1.0 μM)”.
Consider `COc1ccccc1C1CCN(C2CC3CCC2C3)CC1` (stereo not drawn) [Compound 79], for which, in experiment [1], the Emax was 25 to 100% and the “M1 Activity” value was “+ (activity was measured to be greater than 5.0 μM)”. For the same compound, in experiment [2], the Emax is under 25% and the “M2 Activity” value is recorded as “+ (activity was measured to be greater than 5.0 μM)”. Moreover, in experiment [3], the Emax was under 25% and the “M3 Activity” value was “+ (activity was measured to be greater than 5.0 μM)”. Moreover, in experiment [4], the maximal effect (Emax) lay in the range of 25 to 100% and the “M4 Activity” value is “+++ (activity was measured to be less than 1.0 μM)”.
As for `COc1ccc(-c2ccc(C#N)cc2)cc1C1CCN(C2CC3CCC(C3)C2)CC1` (stereo not drawn) [Compound 82], in experiment [1], the Emax is 25 to 100% and the “M1 Activity” value is given as “+ (activity was measured to be greater than 5.0 μM)”. Moreover, in experiment [2], the maximal response (Emax) is under 25% and the “M2 Activity” value was “+ (activity was measured to be greater than 5.0 μM)”. Also, in experiment [3], the Emax was under 25% and the “M3 Activity” value is reported as “+ (activity was measured to be greater than 5.0 μM)”. In experiment [4], the Emax fell in the range of 25 to 100% and the “M4 Activity” value is given as “+ (activity was measured to be greater than 5.0 μM)”.
On to `COc1ccc(Cl)cc1C1(F)CCN(C2CCC3CCC2C3)CC1` (stereo not drawn) [Compound 83], for which, in experiment [1], the Emax lay within 25 to 100% and the “M1 Activity” value was “+ (activity was measured to be greater than 5.0 μM)”. Moreover, in experiment [2], the Emax lay in the range of 25 to 100% and the “M2 Activity” value is “+ (activity was measured to be greater than 5.0 μM)”. Moreover, in experiment [3], the Emax is under 25% and the “M3 Activity” value was “+ (activity was measured to be greater than 5.0 μM)”. For the same compound, in experiment [4], the Emax lay within 25 to 100% and the “M4 Activity” value is reported as “++ (activity was measured to be from 1.0 μM to 5.0 μM)”.
Turning to `CCNC(=O)c1ccc(-c2ccc(OC)c(C3CCN([C@H]4C[C@H]5CC[C@H]4C5)CC3)c2)cc1` [Compound 84], in experiment [1], the Emax was under 25% and the “M1 Activity” value was “+ (activity was measured to be greater than 5.0 μM)”. Besides, in experiment [2], the maximal response (Emax) is under 25% and the “M2 Activity” value was “+ (activity was measured to be greater than 5.0 μM)”. Moreover, in experiment [3], the Emax was under 25% and the “M3 Activity” value is reported as “+ (activity was measured to be greater than 5.0 μM)”. In addition, in experiment [4], the maximal response (Emax) is under 25% and the “M4 Activity” value is listed as “+ (activity was measured to be greater than 5.0 μM)”.
`COc1ccccc1C1CCN([C@@H]2C[C@H]3CC[C@H]2C3)CC1` [Compound 85]: in experiment [1], the maximal response (Emax) fell in the range of 25 to 100% and the “M1 Activity” value is given as “+ (activity was measured to be greater than 5.0 μM)”. Moreover, in experiment [2], the maximal effect (Emax) was under 25% and the “M2 Activity” value is “+ (activity was measured to be greater than 5.0 μM)”. Also, in experiment [3], the Emax was under 25% and the “M3 Activity” value is “+ (activity was measured to be greater than 5.0 μM)”. Further, in experiment [4], the maximal response (Emax) was 25 to 100% and the “M4 Activity” value is on record as “+++ (activity was measured to be less than 1.0 μM)”.
As to `Cc1ccccc1C1CCN(C2CC3CCC(C3)C2)CC1` (stereo not drawn) [Compound 86], in experiment [1], the maximal effect (Emax) fell in the range of 25 to 100% and the “M1 Activity” value is “++ (activity was measured to be from 1.0 μM to 5.0 μM)”. Also, in experiment [2], the maximal effect (Emax) is under 25% and the “M2 Activity” value is listed as “+ (activity was measured to be greater than 5.0 μM)”. Moreover, in experiment [3], the maximal response (Emax) is under 25% and the “M3 Activity” value is listed as “+ (activity was measured to be greater than 5.0 μM)”. In experiment [4], the maximal effect (Emax) lay in the range of 25 to 100% and the “M4 Activity” value was “+++ (activity was measured to be less than 1.0 μM)”.
Regarding `COCCNC(=O)c1ccc(-c2ccc(OC)c(C3CCN([C@H]4C[C@H]5CC[C@H]4C5)CC3)c2)cc1` [Compound 87], in experiment [1], the maximal response (Emax) was under 25% and the “M1 Activity” value is on record as “+ (activity was measured to be greater than 5.0 μM)”. For the same compound, in experiment [2], the maximum response (Emax) was under 25% and the “M2 Activity” value is “+ (activity was measured to be greater than 5.0 μM)”. In experiment [3], the Emax was under 25% and the “M3 Activity” value is “+ (activity was measured to be greater than 5.0 μM)”. For the same compound, in experiment [4], the maximal effect (Emax) is under 25% and the “M4 Activity” value is recorded as “+ (activity was measured to be greater than 5.0 μM)”.
As to `Clc1ccccc1-c1ccccc1C1CCN([C@H]2C[C@H]3CC[C@H]2C3)CC1` [Compound 88], in experiment [1], the Emax is under 25% and the “M1 Activity” value is given as “+ (activity was measured to be greater than 5.0 μM)”. Also, in experiment [2], the maximal effect (Emax) was under 25% and the “M2 Activity” value is reported as “+ (activity was measured to be greater than 5.0 μM)”. In addition, in experiment [3], the Emax was under 25% and the “M3 Activity” value is “+ (activity was measured to be greater than 5.0 μM)”. In addition, in experiment [4], the maximal effect (Emax) is 25 to 100% and the “M4 Activity” value is given as “++ (activity was measured to be from 1.0 μM to 5.0 μM)”.
